By pIC50 is commonly meant −log10 of the IC50, conventionally taken in molar units.

pIC50: −log10 of the molar value. Counter-ions that a name gives are not always drawn. Some results are limits rather than exact numbers.

This assay addresses T1, human PAR-2 (hPAR-2) receptor expressed in HEK-293 T cells in an endogenous manner (Homo sapiens, UniProt P55085).
T1 construct: human PAR-2 (hPAR-2) receptor expressed in HEK-293 T cells in an endogenous manner; endogenous in cells; host or cells: HEK-293 T cells
T1 sequence (P55085 26-397): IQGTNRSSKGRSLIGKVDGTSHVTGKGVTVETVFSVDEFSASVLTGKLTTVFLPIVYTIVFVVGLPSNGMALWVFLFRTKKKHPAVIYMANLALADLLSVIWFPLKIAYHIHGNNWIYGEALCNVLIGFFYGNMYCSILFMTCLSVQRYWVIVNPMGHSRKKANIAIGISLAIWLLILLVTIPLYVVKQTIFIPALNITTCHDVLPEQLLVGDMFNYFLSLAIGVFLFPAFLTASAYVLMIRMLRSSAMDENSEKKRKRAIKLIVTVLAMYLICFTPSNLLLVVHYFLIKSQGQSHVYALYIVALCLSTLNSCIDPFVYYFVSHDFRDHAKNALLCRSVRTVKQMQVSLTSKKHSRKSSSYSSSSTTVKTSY
Kind of assay: In vitro human PAR-2 functional antagonist activity using calcium assays (Fluo4AM, FLIPR Tetra). The following applies: HEK-293 T cells stimulated by an EC80 of the 2-Furoyl-LIGRLO-NH2 peptide after 10 min incubation with compound; 20 concentrations, duplicate, two independent experiments. Type of assay: cell-based. The method in brief: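 Antagonist activity was taken as the decrease in the calcium response to an EC80 of 2-Furoyl-LIGRLO-NH2, measured over 5 min. The agonist was added after a 10 min compound-alone step on the same plate. The HEK-293 T cells express PAR-2 endogenously and were loaded with 1 μM Fluo4AM. Signals were referenced to buffer and EC80-alone controls.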

Turning to `Cc1cc(N2CCN(C(=O)c3ccc4c(-c5ccc(Cl)c(F)c5)cn(C(C)(C)C)c4n3)[C@H](C)C2)nc(C)c1C(=O)O` [Example 130, (R)-6-(4-(1-(tert-butyl)-3-(4-chloro-3-fluorophenyl)-1H-pyrrolo[2,3-b]pyridine-6-carbonyl)-3-methylpiperazin-1-yl)-2,4-dimethylnicotinic acid], the pIC50 was 5.00 to 7.70.
As for `CN(C)C(=O)c1ccc(N2CCN(C(=O)c3ccc4c(-c5ccc(Cl)c(F)c5)cn(C(C)(C)C)c4n3)C(C)(C)C2)nc1` [Example 139, 6-(4-(1-(tert-butyl)-3-(4-chloro-3-fluorophenyl)-1H-pyrrolo[2,3-b]pyridine-6-carbonyl)-3,3-dimethylpiperazin-1-yl)-N,N-dimethylnicotinamide], the pIC50 is greater than 7.70.
As for `Cc1cc(N2CCN(C(=O)c3ccc4c(-c5ccc(Cl)c(F)c5)cn(C5(C)CCC5)c4n3)C(C)(C)C2)nc(C)c1C(=O)O` [Example 121, 6-(4-(3-(4-chloro-3-fluorophenyl)-1-(1-methylcyclobutyl)-1H-pyrrolo[2,3-b]pyridine-6-carbonyl)-3,3-dimethylpiperazin-1-yl)-2,4-dimethylnicotinic acid], the pIC50 is greater than 7.70.
Regarding `CC1(C)C(=O)NCCN1C(=O)c1ccc2c(-c3ccc(Cl)c(F)c3)cn(CCn3cncn3)c2n1` [Example 40, 4-(1-(2-(1H-1,2,4-triazol-1-yl)ethyl)-3-(4-chloro-3-fluorophenyl)-1H-pyrrolo[2,3-b]pyridine-6-carbonyl)-3,3-dimethylpiperazin-2-one], the pIC50 was 5.00 to 7.70.
`CC(C)Cn1cc(-c2cccc(Cl)c2)c2ccc(C(=O)N3CCNC(=O)C3(C)C)nc21` [Example 50, 4-[3-(3-chlorophenyl)-1-isobutyl-pyrrolo[2,3-b]pyridine-6-carbonyl]-3,3-dimethyl-piperazin-2-one]: the pIC50 was 5.00 to 7.70.
In the case of `CC1(C)CN(C(=O)c2ccc3c(-c4ccc(Cl)c(F)c4)cn(C(C)(C)C)c3n2)CCC1C(N)=O` (stereo not drawn) [Example 23, 1-(1-(tert-butyl)-3-(4-chloro-3-fluorophenyl)-1H-pyrrolo[2,3-b]pyridine-6-carbonyl)-3,3-dimethylpiperidine-4-carboxamide] it was 5.00 to 7.70.
As to `Cc1cc(N2CCN(C(=O)c3ccc4c(-c5ccc(Cl)c(F)c5)cn(CC(=O)O)c4n3)C(C)(C)C2)nc(C)c1C(=O)O` [Example 133, 6-(4-(1-(carboxymethyl)-3-(4-chloro-3-fluorophenyl)-1H-pyrrolo[2,3-b]pyridine-6-carbonyl)-3,3-dimethylpiperazin-1-yl)-2,4-dimethylnicotinic acid], the pIC50 is less than 5.00.
For the molecule `CC(C)Cn1cc(-c2ccc(Cl)cc2Cl)c2ccc(C(=O)N3CCNC(=O)C3(C)C)nc21` [Example 84, 4-(3-(2,4-dichlorophenyl)-1-isobutyl-1H-pyrrolo[2,3-b]pyridine-6-carbonyl)-3,3-dimethylpiperazin-2-one], the pIC50 was 5.00 to 7.70.
On to `Cc1cc(N2CCN(C(=O)c3ccc4c(-c5ccc(Cl)c(F)c5)cn(C[C@@H]5CCCO5)c4n3)C(C)(C)C2)nc(C)c1C(=O)O` [Example 211, (S)-6-(4-(3-(4-chloro-3-fluorophenyl)-1-((tetrahydrofuran-2-yl)methyl)-1H-pyrrolo[2,3-b]pyridine-6-carbonyl)-3,3-dimethylpiperazin-1-yl)-2,4-dimethylnicotinic acid], for which the negative-log IC50 (pIC50) was greater than 7.70.
Regarding `CC(C)Cn1cc(-c2ccc(C#N)cc2)c2ccc(C(=O)N3CCNC(=O)C3(C)C)nc21` [Example 106, 4-(6-(2,2-dimethyl-3-oxopiperazine-1-carbonyl)-1-isobutyl-1H-pyrrolo[2,3-b]pyridin-3-yl)benzonitrile], the negative-log IC50 (pIC50) is 5.00 to 7.70.
In the case of `Cc1cc(N2CCN(C(=O)c3ccc4c(-c5ccc(Cl)c(F)c5)cn(C(C)(C)C)c4n3)CC2)nc(C)c1C(=O)O` [Example 99, 6-(4-(1-(tert-butyl)-3-(4-chloro-3-fluorophenyl)-1H-pyrrolo[2,3-b]pyridine-6-carbonyl)piperazin-1-yl)-2,4-dimethylnicotinic acid] it was greater than 7.70.
Turning to `CC(C)(C)n1cc(-c2ccc(Cl)c(F)c2)c2ccc(C(=O)N3CCC(CC(N)=O)CC3)nc21` [Example 163, 2-(1-(1-(tert-butyl)-3-(4-chloro-3-fluorophenyl)-1H-pyrrolo[2,3-b]pyridine-6-carbonyl)piperidin-4-yl)acetamide], the pIC50 is 5.00 to 7.70.
`CC(C)(C)c1cn(-c2ccc(Cl)c(F)c2)c2ccc(C(=O)N3CCNC(=O)C3(C)C)nc12` [Example 221, 4-(3-(tert-butyl)-1-(4-chloro-3-fluorophenyl)-1H-pyrrolo[3,2-b]pyridine-5-carbonyl)-3,3-dimethylpiperazin-2-one]: the pIC50 is greater than 7.70.
Turning to `COC[C@@H](C)n1cc(-c2ccc(Cl)c(F)c2)c2ccc(C(=O)N3CCN(c4cc(C)c(C(=O)O)c(C)n4)CC3(C)C)nc21` [Example 140, (R)-6-(4-(3-(4-chloro-3-fluorophenyl)-1-(1-methoxypropan-2-yl)-1H-pyrrolo[2,3-b]pyridine-6-carbonyl)-3,3-dimethylpiperazin-1-yl)-2,4-dimethyinicotinic acid], the negative-log IC50 (pIC50) was greater than 7.70.
`CC1(C)CN(c2ccc(C(=O)O)cn2)CCN1C(=O)c1ccc2c(-c3ccc(Cl)c(F)c3)cn(C(C)(C)C)c2n1` [Example 137, 6-(4-(1-(tert-butyl)-3-(4-chloro-3-fluorophenyl)-1H-pyrrolo[2,3-b]pyridine-6-carbonyl)-3,3-dimethylpiperazin-1-yl)nicotinic acid]: the negative-log IC50 (pIC50) was greater than 7.70.
Consider `Cc1cc(N(C)[C@@H]2CCN(C(=O)c3ccc4c(-c5ccc(Cl)c(F)c5)cn(C(C)(C)C)c4n3)C2)nc(C)c1C(=O)O` [Example 155, (R)-6-((1-(1-(tert-butyl)-3-(4-chloro-3-fluorophenyl)-1H-pyrrolo[2,3-b]pyridine-6-carbonyl)pyrrolidin-3-yl)(methyl)amino)-2,4-dimethylnicotinic acid], for which the negative logarithm of the IC50 (pIC50) was 5.00 to 7.70.
In the case of `CC(C)(C)n1cc(-c2ccc(Cl)c(F)c2)c2ccc(C(=O)N3CCC4(CC3)CNC(=O)C4)nc21` [Example 14, 8-(1-(tert-butyl)-3-(4-chloro-3-fluorophenyl)-1H-pyrrolo[2,3-b]pyridine-6-carbonyl)-2,8-diazaspiro[4.5]decan-3-one], the negative-log IC50 (pIC50) was 5.00 to 7.70.
As to `Cc1cc(N2CCN(C(=O)c3ccc4c(-c5ccc(Cl)c(F)c5)cn(CC5CCC5)c4n3)C(C)(C)C2)nc(C)c1C(=O)O` [Example 171, 6-(4-(3-(4-chloro-3-fluorophenyl)-1-(cyclobutylmethyl)-1H-pyrrolo[2,3-b]pyridine-6-carbonyl)-3,3-dimethylpiperazin-1-yl)-2,4-dimethylnicotinic acid], the negative logarithm of the IC50 (pIC50) was greater than 7.70.
In the case of `Cc1cc(N2CC3CN(C(=O)c4ccc5c(-c6ccc(Cl)c(F)c6)cn(C(C)(C)C)c5n4)C3C2)nc(C)c1C(=O)O` (stereo not drawn) [Example 101, 6-(6-(1-(tert-butyl)-3-(4-chloro-3-fluorophenyl)-1H-pyrrolo[2,3-b]pyridine-6-carbonyl)-3,6-diazabicyclo[3.2.0]heptan-3-yl)-2,4-dimethylnicotinic acid] it was 5.00 to 7.70.
With `Cc1cc(N(C)C2CCN(C(=O)c3ccc4c(-c5ccc(Cl)c(F)c5)cn(C(C)(C)C)c4n3)CC2C)nc(C)c1C(=O)O` (mixture of isomers) [Example 199, 6-((1-(1-(tert-butyl)-3-(4-chloro-3-fluorophenyl)-1H-pyrrolo[2,3-b]pyridine-6-carbonyl)-3-methylpiperidin-4-yl)(methyl)amino)-2,4-dimethylnicotinic acid], the pIC50 is 5.00 to 7.70.
As for `CC1(C)CN(c2ccc(P(=O)(O)O)cn2)CCN1C(=O)c1ccc2c(-c3ccc(Cl)c(F)c3)cn(C(C)(C)C)c2n1` [Example 194, (6-(4-(1-(tert-butyl)-3-(4-chloro-3-fluorophenyl)-1H-pyrrolo[2,3-b]pyridine-6-carbonyl)-3,3-dimethylpiperazin-1-yl)pyridin-3-yl)phosphonic acid], the pIC50 was less than 5.00.
With `CC(C)Cn1cc(C2=CCN(C)CC2)c2ccc(C(=O)N3CCNC(=O)C3(C)C)nc21` [Example 91, 4-(1-isobutyl-3-(1-methyl-1,2,3,6-tetrahydropyridin-4-yl)-1H-pyrrolo[2,3-b]pyridine-6-carbonyl)-3,3-dimethylpiperazin-2-one hydrochloride], the negative logarithm of the IC50 (pIC50) is less than 5.00.
As for `CCOP(=O)(O)c1ccc(N2CCN(C(=O)c3ccc4c(-c5ccc(Cl)c(F)c5)cn(C(C)(C)C)c4n3)C(C)(C)C2)nc1` [Example 195, ethyl hydrogen (6-(4-(1-(tert-butyl)-3-(4-chloro-3-fluorophenyl)-1H-pyrrolo[2,3-b]pyridine-6-carbonyl)-3,3-dimethylpiperazin-1-yl)pyridin-3-yl)phosphonate], the pIC50 was 5.00 to 7.70.
Take `Cc1cc(C2=CCN(C(=O)c3ccc4c(-c5ccc(Cl)c(F)c5)cn(C(C)(C)C)c4n3)CC2)nc(C)c1C(=O)O` [Example 167, 1′-(1-(tert-butyl)-3-(4-chloro-3-fluorophenyl)-1H-pyrrolo[2,3-b]pyridine-6-carbonyl)-4,6-dimethyl-1′,2′,3′,6′-tetrahydro-[2,4′-bipyridine]-5-carboxylic acid]: the pIC50 is 5.00 to 7.70.

The record behind these values is US20240066027A1 (DOMAIN THERAPEUTICS, priority 2020, published 2024).
